{"source": "paper PMC7093416", "about": "“Selective USP7 inhibition elicits cancer cell killing through a p53-dependent mechanism” (Scientific Reports, 2020)", "test_system": "panel of 484 cancer cell lines", "test": "PRISM cancer cell line profiling, 5 days", "assay_type": "cell-based", "design": "AUC: unit not given beside the values", "protocol": "Cancer cell line profiling was performed using the Broad’s PRISM platform. Cell treatment and data analysis were performed as described in Yu et al[42]. Raw Luminex signal was converted to AUC values for each cell line as described. The resulting AUC profile for each compound was modeled against DepMap using the limma package in R[71]. Because hotspot mutation analysis was performed against DepMap, TP53 annotations in Fig. 6c,d are directly from DepMap."}
{"compound": "CN1CCN(CCC(=O)Nc2ccc3c(=O)n(CC4(O)CCN(C(=O)[C@H](CCCNC(=O)c5ccc6c(Cl)c7c(nc6c5)CCCC7)Cc5ccccc5)CC4)cnc3c2)CC1", "note": "[XL177B]", "values": [{"measurement": "AUC", "setting": "8MGBA_CENTRAL_NERVOUS_SYSTEM", "value": 1.054}, {"measurement": "AUC", "setting": "22RV1_PROSTATE", "value": 1.093}, {"measurement": "AUC", "setting": "42MGBA_CENTRAL_NERVOUS_SYSTEM", "value": 1.146}, {"measurement": "AUC", "setting": "253JBV_URINARY_TRACT", "value": 1.057}, {"measurement": "AUC", "setting": "253J_URINARY_TRACT", "value": 1.086}, {"measurement": "AUC", "setting": "639V_URINARY_TRACT", "value": 1.062}, {"measurement": "AUC", "setting": "647V_URINARY_TRACT", "value": 1.143}, {"measurement": "AUC", "setting": "769P_KIDNEY", "value": 1.004}, {"measurement": "AUC", "setting": "786O_KIDNEY", "value": 1.051}, {"measurement": "AUC", "setting": "5637_URINARY_TRACT", "value": 0.9181}, {"measurement": "AUC", "setting": "8305C_THYROID", "value": 1.192}, {"measurement": "AUC", "setting": "8505C_THYROID", "value": 0.9816}, {"measurement": "AUC", "setting": "2313287_STOMACH", "value": 1.329}, {"measurement": "AUC", "setting": "A101D_SKIN", "value": 1.213}, {"measurement": "AUC", "setting": "A172_CENTRAL_NERVOUS_SYSTEM", "value": 1.079}, {"measurement": "AUC", "setting": "A204_SOFT_TISSUE", "value": 1.022}, {"measurement": "AUC", "setting": "A375_SKIN", "value": 1.179}, {"measurement": "AUC", "setting": "A549_LUNG", "value": 1.079}, {"measurement": "AUC", "setting": "A673_BONE", "value": 1.28}, {"measurement": "AUC", "setting": "A704_KIDNEY", "value": 1.217}, {"measurement": "AUC", "setting": "A2058_SKIN", "value": 1.197}, {"measurement": "AUC", "setting": "A2780_OVARY", "value": 1.076}, {"measurement": "AUC", "setting": "ABC1_LUNG", "value": 1.075}, {"measurement": "AUC", "setting": "ACCMESO1_PLEURA", "value": 0.9927}, {"measurement": "AUC", "setting": "ACHN_KIDNEY", "value": 1.273}, {"measurement": "AUC", "setting": "AGS_STOMACH", "value": 1.102}, {"measurement": "AUC", "setting": "AN3CA_ENDOMETRIUM", "value": 1.099}, {"measurement": "AUC", "setting": "ASPC1_PANCREAS", "value": 1.162}, {"measurement": "AUC", "setting": "BC3C_URINARY_TRACT", "value": 1.114}, {"measurement": "AUC", "setting": "BCPAP_THYROID", "value": 1.195}, {"measurement": "AUC", "setting": "BECKER_CENTRAL_NERVOUS_SYSTEM", "value": 1.058}, {"measurement": "AUC", "setting": "BEN_LUNG", "value": 1.091}, {"measurement": "AUC", "setting": "BFTC905_URINARY_TRACT", "value": 1.11}, {"measurement": "AUC", "setting": "BFTC909_KIDNEY", "value": 1.1037}, {"measurement": "AUC", "setting": "BHT101_THYROID", "value": 1.056}, {"measurement": "AUC", "setting": "BICR6_UPPER_AERODIGESTIVE_TRACT", "value": 0.9836}, {"measurement": "AUC", "setting": "BICR16_UPPER_AERODIGESTIVE_TRACT", "value": 1.161}, {"measurement": "AUC", "setting": "BICR31_UPPER_AERODIGESTIVE_TRACT", "value": 0.9322}, {"measurement": "AUC", "setting": "BICR56_UPPER_AERODIGESTIVE_TRACT", "value": 0.9864}, {"measurement": "AUC", "setting": "BT474_BREAST", "value": 1.187}, {"measurement": "AUC", "setting": "BT549_BREAST", "value": 0.9575}, {"measurement": "AUC", "setting": "BXPC3_PANCREAS", "value": 1.32}, {"measurement": "AUC", "setting": "CADOES1_BONE", "value": 1.116}, {"measurement": "AUC", "setting": "CAKI1_KIDNEY", "value": 1.162}, {"measurement": "AUC", "setting": "CAL12T_LUNG", "value": 1}, {"measurement": "AUC", "setting": "CAL27_UPPER_AERODIGESTIVE_TRACT", "value": 1.104}, {"measurement": "AUC", "setting": "CAL29_URINARY_TRACT", "value": 1.1383}, {"measurement": "AUC", "setting": "CAL51_BREAST", "value": 1.013}, {"measurement": "AUC", "setting": "CAL54_KIDNEY", "value": 1.167}, {"measurement": "AUC", "setting": "CAL62_THYROID", "value": 1.094}, {"measurement": "AUC", "setting": "CAL78_BONE", "value": 1.0528}, {"measurement": "AUC", "setting": "CAL120_BREAST", "value": 0.9632}, {"measurement": "AUC", "setting": "CALU1_LUNG", "value": 0.8074}, {"measurement": "AUC", "setting": "CALU6_LUNG", "value": 1.057}, {"measurement": "AUC", "setting": "CAMA1_BREAST", "value": 1.095}, {"measurement": "AUC", "setting": "CAOV3_OVARY", "value": 1.1}, {"measurement": "AUC", "setting": "CAPAN2_PANCREAS", "value": 1.138}, {"measurement": "AUC", "setting": "CCFSTTG1_CENTRAL_NERVOUS_SYSTEM", "value": 0.9645}, {"measurement": "AUC", "setting": "CFPAC1_PANCREAS", "value": 1.136}, {"measurement": "AUC", "setting": "CHL1_SKIN", "value": 1.081}, {"measurement": "AUC", "setting": "CJM_SKIN", "value": 1.284}, {"measurement": "AUC", "setting": "CL34_LARGE_INTESTINE", "value": 1.203}, {"measurement": "AUC", "setting": "COLO668_LUNG", "value": 1.113}, {"measurement": "AUC", "setting": "COLO679_SKIN", "value": 1.002}, {"measurement": "AUC", "setting": "COLO680N_OESOPHAGUS", "value": 1.0645}, {"measurement": "AUC", "setting": "COLO741_SKIN", "value": 1.159}, {"measurement": "AUC", "setting": "COLO783_SKIN", "value": 1.1}, {"measurement": "AUC", "setting": "COLO792_SKIN", "value": 1.078}, {"measurement": "AUC", "setting": "COLO800_SKIN", "value": 1.008}, {"measurement": "AUC", "setting": "CORL23_LUNG", "value": 1.07}, {"measurement": "AUC", "setting": "CORL105_LUNG", "value": 1.1478}, {"measurement": "AUC", "setting": "COV362_OVARY", "value": 1.091}, {"measurement": "AUC", "setting": "COV434_OVARY", "value": 0.9992}, {"measurement": "AUC", "setting": "DANG_PANCREAS", "value": 1.066}, {"measurement": "AUC", "setting": "DAOY_CENTRAL_NERVOUS_SYSTEM", "value": 0.9946}, {"measurement": "AUC", "setting": "DBTRG05MG_CENTRAL_NERVOUS_SYSTEM", "value": 1.141}, {"measurement": "AUC", "setting": "DETROIT562_UPPER_AERODIGESTIVE_TRACT", "value": 1.072}, {"measurement": "AUC", "setting": "DKMG_CENTRAL_NERVOUS_SYSTEM", "value": 1.0187}, {"measurement": "AUC", "setting": "DMS273_LUNG", "value": 1.134}, {"measurement": "AUC", "setting": "DU145_PROSTATE", "value": 1.137}, {"measurement": "AUC", "setting": "DV90_LUNG", "value": 0.9062}, {"measurement": "∆ (AUC, TP53 mutation vs WT; decreased sensitivity)", "setting": "DepMap TP53 mutation annotation", "value": "not significantly associated"}, {"measurement": "AUC", "setting": "EBC1_LUNG", "value": 1.133}, {"measurement": "AUC", "setting": "ECGI10_OESOPHAGUS", "value": 1.109}, {"measurement": "AUC", "setting": "EFM192A_BREAST", "value": 0.9815}, {"measurement": "AUC", "setting": "EFO21_OVARY", "value": 1.192}, {"measurement": "AUC", "setting": "EFO27_OVARY", "value": 1.165}, {"measurement": "AUC", "setting": "EN_ENDOMETRIUM", "value": 1.137}, {"measurement": "AUC", "setting": "ES2_OVARY", "value": 1.077}, {"measurement": "AUC", "setting": "ESS1_ENDOMETRIUM", "value": 1.338}, {"measurement": "AUC", "setting": "EWS502_BONE", "value": 1.036}, {"measurement": "AUC", "setting": "FADU_UPPER_AERODIGESTIVE_TRACT", "value": 1.234}, {"measurement": "AUC", "setting": "FTC133_THYROID", "value": 0.9765}, {"measurement": "AUC", "setting": "FTC238_THYROID", "value": 0.9864}, {"measurement": "AUC", "setting": "G292CLONEA141B1_BONE", "value": 1.035}, {"measurement": "AUC", "setting": "G361_SKIN", "value": 1.116}, {"measurement": "AUC", "setting": "G401_SOFT_TISSUE", "value": 0.7376}, {"measurement": "AUC", "setting": "G402_SOFT_TISSUE", "value": 0.8902}, {"measurement": "AUC", "setting": "GAMG_CENTRAL_NERVOUS_SYSTEM", "value": 1.162}, {"measurement": "AUC", "setting": "GB1_CENTRAL_NERVOUS_SYSTEM", "value": 1.065}, {"measurement": "AUC", "setting": "GCIY_STOMACH", "value": 0.9556}, {"measurement": "AUC", "setting": "GCT_SOFT_TISSUE", "value": 1.093}, {"measurement": "AUC", "setting": "GI1_CENTRAL_NERVOUS_SYSTEM", "value": 0.984}, {"measurement": "AUC", "setting": "GMS10_CENTRAL_NERVOUS_SYSTEM", "value": 0.9403}, {"measurement": "AUC", "setting": "GOS3_CENTRAL_NERVOUS_SYSTEM", "value": 0.9659}, {"measurement": "AUC", "setting": "GP2D_LARGE_INTESTINE", "value": 1.185}, {"measurement": "AUC", "setting": "H4_CENTRAL_NERVOUS_SYSTEM", "value": 1.05}, {"measurement": "AUC", "setting": "HARA_LUNG", "value": 1.202}, {"measurement": "AUC", "setting": "HCC15_LUNG", "value": 1.143}, {"measurement": "AUC", "setting": "HCC38_BREAST", "value": 1.103}, {"measurement": "AUC", "setting": "HCC44_LUNG", "value": 1.112}, {"measurement": "AUC", "setting": "HCC56_LARGE_INTESTINE", "value": 1.103}, {"measurement": "AUC", "setting": "HCC78_LUNG", "value": 1.106}, {"measurement": "AUC", "setting": "HCC95_LUNG", "value": 1.096}, {"measurement": "AUC", "setting": "HCC366_LUNG", "value": 1.065}, {"measurement": "AUC", "setting": "HCC827_LUNG", "value": 0.9535}, {"measurement": "AUC", "setting": "HCC1143_BREAST", "value": 1.163}, {"measurement": "AUC", "setting": "HCC1195_LUNG", "value": 0.8866}, {"measurement": "AUC", "setting": "HCC1359_LUNG", "value": 1.197}, {"measurement": "AUC", "setting": "HCC1419_BREAST", "value": 1.107}, {"measurement": "AUC", "setting": "HCC1428_BREAST", "value": 0.9597}]}
